Reference: US20200306216A1, “CURE FOR ALZHEIMER'S DISEASE” (priority 2019, published 2020)

Assay: Single-patient clinical case: combination therapy for Alzheimer's disease
Type: in vivo, human
Details: overall outcome as stated by applicant
Experimental: A patient suffering from significant memory loss and vision loss was evaluated for treatment. The patient suffered a gradual decline in both short-term and long-term memory over at least three years. The patient also complained about vision loss over a period of about six years. The patient scored 11 out of 30 on a mental status exam, indicating dementia or other cognitive impairment. A clinical psychologist determined that the patient was oriented to person, but poorly oriented to place and time. […] The patient acknowledged having anger problems. The patent denied having anxiety, mania, or depression but acknowledged occasional suicidal ideation. They denied having any current intent to harm […]. The patient's spouse reported that the patient would sometimes sit and rock back-and-forth. They also reported that the patient would sometimes hit their head when upset. There was no evidence that the patient suffered from delusions or hallucinations, and there was no evidence of agnosia. The patient previously had coronary artery bypass surgery and also suffered from type 2 diabetes mellitus for multiple decades. […] The patient also suffered from hepatitis C, but was not previously treated. It was determined that the patient was only able to perceive light in both eyes. The patient's loss of vision was due to glaucoma and diabetic retinopathy. […]

Row | Structure (SMILES) | outcome of treatment of Alzheimer's disease
1 | CC12CC3CC(C)(C1)CC(N)(C3)C2 [memantine] | unsuccessful
2 | COc1cc2c(cc1OC)C(=O)C(CC1CCN(Cc3ccccc3)CC1)C2 (centres unmarked) [donepezil] | unsuccessful
